Consider 1 molecule from US20120040976A1, “SMALL MOLECULE IMMUNOMODULATORS FOR ALZHEIMER'S DISEASE” (HUMAN BIOMOLECULAR RESEARCH INSTITUTE, priority 2008, published 2012).

A short description of series [1]: Chemical stability (H2O, pH 7.4). The format is physicochemical.
The test system of the next series is MGAT3. As to the kind of experiment: MGAT3 gene expression by qPCR in U-937 human monocytic cells treated with curcumins plus Aβ. Particulars: human monocytic cells (U-937), curcumin plus Aβ. Format: cell-based. On the procedure: (§1) Cell culture conditions for monocytic cell lines. Human and mouse monocyte cell lines are grown in RPMI-1640 medium with 10% fetal bovine serum (FBS), plus glutamine and pen/strep. For treatment with compounds (curcuminoids+/−Aβ), replicate sets of 0.5-1.0 mL cultures containing 1-2×10^6 cells are set up in the wells of 48-well tissue culture plates. Both replicate sets have at least one control well receiving no added curcuminoid to provide baseline expression controls for untreated, and Aβ-only treated cells. Remaining wells receive curcuminoid in a range of 10-fold serial dilutions in DMSO, typically from […] Cultures are incubated for 20-24 hours (“overnight”) at 37° C. in atmosphere with 5% CO2. After one overnight, to one of replicate sets of cultures is added Aβ (1-42) peptide to a final concentration of 5 μg/mL.
(§2) RNA isolation and cDNA synthesis. After the first overnight incubation in the presence of curcuminoid, cells from one replicate set of wells are collected by centifugation. RNAs are extracted from pelleted cells using miniprep column kits following manufacturer's protocol for animal cells. […] of total cellular RNA from each well is quantitated using a Nanodrop spectrophotometer, and first-strand total cDNA is prepared from 0.3-1.0 μg RNA by random-hexamer priming. Following the second 20 hr. incubation in the presence of Aβ, RNA extractions and cDNA synthesis are similarly performed.
Assay development. Gene-specific mRNA levels are determined using a real-time thermocycler, and by normalizing to expression of one or more control genes. Assays for quantifying mRNA levels are based on gene sequences reported in NCBI Genbank. PCR oligonucleotide primers are selected spanning introns to minimize the opportunity for amplication from any contaminating genomic DNA in the RNA preps. Oligonucleotides are typically tested and used at a concentration of 200 nM in qPCR reactions containing SYBR dye. Control reactions include template from cDNA synthesis reactions either + or − reverse transcriptase (RT), as well as no-template controls (ntc). […] Melt curves based on incremental 0.5° C. increases are determined for new assays to test for uniformity of amplified products. […]
qPCR reactions of cultured monocyte cDNAs. […] SYBR-Green reactions were run on a Continuous Fluorescence real-time thermocycler and analyzed. Cycle threshold (Ct) values are recorded for each replicate reaction, and are then averaged and normalized against mean Ct values from one or more control genes. Fold-expression differences relative to untreated cells are determined using the 2^−ΔΔCt method as previously described. […] Data are also evaluated for each gene with regard to sensitivity, maximally effective concentration of curcuminoid, response to Aβ, and overall magnitude of fold-expression changes. […]

The subject of another series is TLR 5. Put plainly: TLR 5 transcription ratio, AD patient / control PBMCs (qPCR). The format is cell-based, human. As to conditions: Aβ stimulation. On the procedure: (§3) qPCR reactions of cultured monocyte cDNAs. One μL total cellular cDNA per reaction is used in triplicate reactions for each test gene, and for each culture treatment. SYBR-Green reactions were run on a Continuous Fluorescence real-time thermocycler and analyzed. Cycle threshold (Ct) values are recorded for each replicate reaction, and are then averaged and normalized against mean Ct values from one or more control genes. Fold-expression differences relative to untreated cells are determined using the 2^−ΔΔCt method as previously described. Data from the curcumin concentration range are plotted in order to determine EC50 values (concentrations producing one-half maximal stimulant activity), which are used for comparisons of potency between different compounds. Data are also evaluated for each gene with regard to sensitivity, maximally effective concentration of curcuminoid, response to Aβ, and overall magnitude of fold-expression changes.
(§4) MGAT3 and/or TLR transcription were tested by qPCR in human monocyte cells treated with curcuminoids and compared the results to those treated with vehicle (Table 7). As discussed above, activation or up-regulation of macrophage MGAT3 or TLR's results in many functional outcomes, including the enhancement of […] and removal of Aβ, increased apoptosis, secretion of inflammatory cytokines, and other anti-AD antimicrobial activities. […]

For another series, the system named is TLR2. Put plainly: TLR2 gene expression by qPCR in U-937 human monocytic cells treated with curcumins plus Aβ. The format is cell-based. Particulars: human monocytic cells (U-937), curcumin plus Aβ. The method, then: as §1, §2
Assay development. Gene-specific mRNA levels are determined using a real-time thermocycler, and by normalizing to expression of one or more control genes. Assays for quantifying mRNA levels are based on gene sequences reported in NCBI Genbank. PCR oligonucleotide primers are selected spanning introns to minimize the opportunity for amplication from any contaminating genomic DNA in the RNA preps. Oligonucleotides are typically tested and used at a concentration of 200 nM in qPCR reactions containing SYBR dye. Control reactions include template from cDNA synthesis reactions either + or − reverse transcriptase (RT), as well as no-template controls (ntc). All reactions are performed in triplicate. Reactions are typically run with 40 cycles of 95° C. (10 sec) and 58° C. (30 sec). Melt curves based on incremental 0.5° C. increases are determined for new assays to test for uniformity of amplified products. Reaction conditions are modified as needed depending on initial test results. ‘Working’ assays are selected based on clear RNA-dependent amplification and absence of product in ‘ntc’ reactions. The following assay primers are used: […]
qPCR reactions of cultured monocyte cDNAs. One μL total cellular cDNA per reaction is used in triplicate reactions for each test gene, and for each culture treatment. SYBR-Green reactions were run on a Continuous Fluorescence real-time thermocycler and analyzed. Cycle threshold (Ct) values are recorded for each replicate reaction, and are then averaged and normalized against mean Ct values from one or more control genes. Fold-expression differences relative to untreated cells are determined using the 2^−ΔΔCt method as previously described. […] Data are also evaluated for each gene with regard to sensitivity, maximally effective concentration of curcuminoid, response to Aβ, and overall magnitude of fold-expression changes. […]
Background: In qPCR the cycle at which signal appears reflects the starting amount.

The subject of another series is TLR 6. Put plainly: TLR 6 transcription ratio, AD patient / control PBMCs (qPCR). The format is cell-based, human. Particulars: Aβ stimulation. The method, then:
as §3, §4

The test system of the next series is TLR 4. As to the kind of experiment: TLR 4 transcription ratio, AD patient / control PBMCs (qPCR). Format: cell-based, human. Particulars: Aβ stimulation. The method, boiled down:
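Via qPCR on cultured human monocyte cDNA, curcuminoid-treated versus vehicle, with Aβ stimulation, in AD patient and control cells. SYBR-Green triplicate reactions; Ct averaged, normalised to control genes, fold change by 2^−ΔΔCt. EC50 taken from curcumin concentration-response data.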

Read-outs that look alike come from different tables or passages of the source.

`O=C(/C=C(O)/C=C/c1ccc(O)cc1)/C=C/c1ccc(O)cc1` [Compound 1, 5-Hydroxy-1,7-bis-(4-hydroxy-phenyl)-hepta-1,4,6-trien-3-one, reference compound]: the half-life in series [1] (water (aqueous solution), pH 7.4, read-out: Chemical stability t1/2 pH 7.4 (converted)) was 14 min; in series [1] (water, H2O, read-out: Chemical stability t1/2 H2O (converted)), 60 min. Besides, the “Relative gene expression MGAT3, increased expression relative to control cells” value in the series with MGAT3 is “+ ((+) <20-fold)”. Moreover, the “Relative ratio of TLR 5 transcription in AD patient / control PBMC's” value with TLR 5 was “TLR 5 +++ ((+++ to ++++) indicates a ratio of 2.0 and above)”. The “Relative gene expression TLR2, increased expression relative to control cells” value in the series with TLR2 was “+ ((+) <20-fold)”. Moreover, the “Relative ratio of TLR 6 transcription in AD patient / control PBMC's” value in the series on TLR 6 is recorded as “TLR 6 + ((+) indicates a ratio of 1.0-1.5)”. The “Relative ratio of TLR 4 transcription in AD patient / control PBMC's” value in the series with TLR 4 was “TLR 4 +++ ((+++ to ++++) indicates a ratio of 2.0 and above)”.
